*1 amine or outer side, *2 acyl side, *3 side chain or, on linkers, in order; H or OH if unused. Where a SMILES comes first, the peptide text is derived from it. [ ]: non-standard residue; d: D form. The star is where a group is joined. X1 = O=C([C@@]1(O)C[C@@H](O)[C@H](N[*:1])C([C@@H](O)[C@@H](O)CO)O1)[*:2]; Trp(1-Me) = Cn1cc(C[C@H](N)C(=O)O)c2ccccc21; NMeW = CN[C@@H](Cc1c[nH]c2ccccc12)C(=O)O; Phe(3-Br) = N[C@@H](Cc1cccc(Br)c1)C(=O)O; dNMeW = CN[C@H](Cc1c[nH]c2ccccc12)C(=O)O; Fmoc = O=C(OCC1c2ccccc2-c2ccccc21)*; Aad = N[C@@H](CCCC(=O)O)C(=O)O; Aoc(2) = CCCCCC[C@H](N)C(=O)O; Nle = CCCC[C@H](N)C(=O)O; Cbz = O=C(OCc1ccccc1)*
Target: T1, CCK-B receptors (CHO-CCK) (Homo sapiens, UniProt P32239)
T1 construct: expressed in transfected cells; host or cells: CHO (CHO-CCK model cells)
T1 sequence (P32239 1-447): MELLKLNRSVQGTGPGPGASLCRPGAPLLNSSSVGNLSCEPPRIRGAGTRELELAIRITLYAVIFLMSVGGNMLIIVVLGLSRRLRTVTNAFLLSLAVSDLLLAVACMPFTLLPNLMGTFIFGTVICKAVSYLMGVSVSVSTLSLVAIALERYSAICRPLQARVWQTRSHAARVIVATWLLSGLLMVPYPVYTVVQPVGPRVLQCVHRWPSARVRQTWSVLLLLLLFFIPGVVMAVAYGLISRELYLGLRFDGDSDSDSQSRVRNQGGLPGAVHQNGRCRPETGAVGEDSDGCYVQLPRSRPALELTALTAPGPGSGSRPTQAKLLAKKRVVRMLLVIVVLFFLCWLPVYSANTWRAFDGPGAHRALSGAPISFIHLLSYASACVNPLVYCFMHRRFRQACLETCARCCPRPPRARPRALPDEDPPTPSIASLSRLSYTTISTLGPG
Assay: Calcium flux (Fluo-8) agonist test on CHO-CCK model cells
Type: cell-based
Details: for Agonistic Activity (%) at 10 μM: compound at 10 μM, percentage of signal of 20 nM CCK8 alone; for EC50 / % Act-Ave @ 1 nM / % Act-Ave @ 50 nM: CHO-CCK cells; for EC50: Fluo-8 calcium flux, 100% control = 20 nM CCK8; for % Act-Ave @ 1 nM: compound at 1 nM; for % Act-Ave @ 50 nM: compound at 50 nM
In short: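 Agonist-mode Fluo-8 calcium flux read on CHO-CCK cells after dye loading 30 min at 37 °C plus 30 min at room temperature.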

C[S+]([O-])CC[C@H](NC(=O)[C@H](N)Cc1c[nH]c2ccccc12)C(=O)N[C@@H](CC(=O)OCCNc1cccc2c(O)cccc12)C(=O)N[C@@H](Cc1cc(F)c(F)c(F)c1)C(N)=O (stereo partly drawn) [HT-159, D-Trp-Met(O)-Asp(EDANS)-Phe(3,4,5-TriF)-NH2]
Agonistic Activity (%) at 10 μM: 4.93%

CS(=O)(=O)CC[C@H](NC(=O)[C@H](N)Cc1c[nH]c2ccccc12)C(=O)N[C@@H](CC(=O)OCCNc1cccc2c(O)cccc12)C(=O)N[C@@H](Cc1cccc(F)c1)C(N)=O [HT-163, D-Trp-Met(O2)-Asp(EDANS)-Phe(3-F)-NH2]
Agonistic Activity (%) at 10 μM: 2.64%

Cc1ccc(C[C@H](NC(=O)[C@H](CC(=O)OCCNc2cccc3c(O)cccc23)NC(=O)[C@H](CCS(C)(=O)=O)NC(=O)[C@H](N)Cc2c[nH]c3ccccc23)C(N)=O)cc1 [HT-166, D-Trp-Met(O2)-Asp(EDANS)-Phe(4-Me)-NH2]
Agonistic Activity (%) at 10 μM: 3.59%

CCCC[C@H](NC(=O)[C@H](Cc1c[nH]c2ccccc12)N(C)C(=O)OCC1c2ccccc2-c2ccccc21)C(=O)N[C@@H](CC(=O)O)C(=O)N[C@@H](Cc1cccc(Br)c1)C(N)=O [HT-199, Fmoc-(N-Me-Trp)-Nle-Asp-Phe(3-Br)-NH2] (Fmoc-[NMeW][Nle]D[Phe(3-Br)]-NH2)
EC50: 1.47 nM

CCCC[C@H](NC(=O)[C@H](Cc1c[nH]c2ccccc12)N(C)C(=O)OCC1c2ccccc2-c2ccccc21)C(=O)N[C@@H](CC(=O)O)C(=O)N[C@@H](Cc1cccc(Br)c1)C(N)=O [HT-268, Fmoc-(N-Me-Trp)-Nle-Asp-Phe(3-Br)-NH2] (Fmoc-[NMeW][Nle]D[Phe(3-Br)]-NH2)
EC50: 1.3 nM

CCCC[C@H](NC(=O)[C@H](Cc1c[nH]c2ccccc12)N(C)C(C)=O)C(=O)N[C@@H](CC(=O)O)C(=O)N[C@@H](Cc1cccc(Br)c1)C(N)=O [HT-269, Ac-(N-Me-Trp)-Nle-Asp-Phe(3-Br)-NH2] (Ac-[NMeW][Nle]D[Phe(3-Br)]-NH2)
% Act-Ave @ 1 nM: 0.05%
% Act-Ave @ 50 nM: 33.52%

CCCC[C@H](NC(=O)[C@@H](Cc1c[nH]c2ccccc12)N(C)C(C)=O)C(=O)N[C@@H](CCCC(=O)O)C(=O)N[C@@H](Cc1cccc(Br)c1)C(N)=O [HT-270, Ac-D-Trp-Nle-Aa-Phe(3-Br)-NH2] (Ac-[dNMeW][Nle][Aad][Phe(3-Br)]-NH2)
% Act-Ave @ 1 nM: −0.03%
% Act-Ave @ 50 nM: 80.85%

CCCC[C@H](NC(=O)[C@H](Cc1c[nH]c2ccccc12)N(C)C(C)=O)C(=O)N[C@@H](CCCC(=O)O)C(=O)N[C@@H](Cc1cccc(Br)c1)C(N)=O [HT-271, Ac-Trp-Nle-Aa-Phe(3-Br)-NH2] (Ac-[NMeW][Nle][Aad][Phe(3-Br)]-NH2)
% Act-Ave @ 1 nM: 40.66%
% Act-Ave @ 50 nM: 104.56%

CCCC[C@H](NC(=O)[C@H](Cc1c[nH]c2ccccc12)N(C)C(C)=O)C(=O)N[C@@H](CCCC(=O)O)C(=O)N[C@@H](Cc1cccc(Br)c1)C(N)=O [HT-272, Ac-(N-Me-Trp)-Nle-Aa-Phe(3-Br)-NH2] (Ac-[NMeW][Nle][Aad][Phe(3-Br)]-NH2)
% Act-Ave @ 1 nM: −0.33%
% Act-Ave @ 50 nM: 86.09%

CCCC[C@H](NC(=O)[C@H](Cc1c[nH]c2ccccc12)N(C)C(C)=O)C(=O)N[C@@H](CC(=O)O)C(=O)N[C@@H](Cc1cccc(Br)c1)C(N)=O [HT-273, Ac-(N-Me-Trp)-Nle-Asp-Phe(3-Br)-NH2] (Ac-[NMeW][Nle]D[Phe(3-Br)]-NH2)
% Act-Ave @ 1 nM: 52.14%
% Act-Ave @ 50 nM: 96.54%

CCCC[C@H](NC(=O)[C@H](Cc1c[nH]c2ccccc12)N(C)C(=O)[C@@]1(O)C[C@@H](O)[C@H](NC(C)=O)C([C@@H](O)[C@@H](O)CO)O1)C(=O)N[C@@H](CC(=O)O)C(=O)N[C@@H](Cc1cccc(Br)c1)C(N)=O (some centres unmarked) [HT-274, Sia-(N-Me-Trp)-Nle Asp-Phe(3-Br)-NH2] (Ac-[X1][NMeW][Nle]D[Phe(3-Br)]-NH2)
% Act-Ave @ 1 nM: 0.10%
% Act-Ave @ 50 nM: 72.88%

CCCC[C@H](NC(=O)[C@H](Cc1c[nH]c2ccccc12)N(C)C(=O)[C@@]1(O)C[C@@H](O)[C@H](NC(C)=O)C([C@@H](O)[C@@H](O)CO)O1)C(=O)N[C@@H](CCCC(=O)O)C(=O)N[C@@H](Cc1cccc(Br)c1)C(N)=O (some centres unmarked) [HT-275, Trp)-Nle-Aa-Phe(3-Br)-NH2] (Ac-[X1][NMeW][Nle][Aad][Phe(3-Br)]-NH2)
% Act-Ave @ 1 nM: 62.28%
% Act-Ave @ 50 nM: 100.24%

CCCC[C@H](NC(=O)[C@H](Cc1c[nH]c2ccccc12)N(C)C(=O)[C@@H](N)CCC(=O)O)C(=O)N[C@@H](CCCC(=O)O)C(=O)N[C@@H](Cc1cccc(Br)c1)C(N)=O [HT-277, Glu-(N-Me-Trp)-Nle-Aa-Phe(3-Br)-NH2] (H-E[NMeW][Nle][Aad][Phe(3-Br)]-NH2)
% Act-Ave @ 1 nM: −0.13%
% Act-Ave @ 50 nM: 13.46%

CCCC[C@H](NC(=O)[C@H](Cc1c[nH]c2ccccc12)N(C)C(=O)[C@@]1(O)C[C@@H](O)[C@H](NC(C)=O)C([C@@H](O)[C@@H](O)CO)O1)C(=O)N[C@@H](CC(=O)O)C(=O)N[C@@H](Cc1cccc(Br)c1)C(N)=O (stereo partly drawn) [HT-278, Sia-(N-Me-Trp)-Nle-Asp-Phe(3-Br)-NH2] (Ac-[X1][NMeW][Nle]D[Phe(3-Br)]-NH2)
% Act-Ave @ 1 nM: 40.85%
% Act-Ave @ 50 nM: 93.12%

CCCCCC[C@H](NC(=O)[C@H](Cc1cn(C)c2ccccc12)NC(=O)OCc1ccccc1)C(=O)N[C@@H](CC(=O)O)C(=O)N[C@@H](Cc1cccc(Br)c1)C(N)=O [HT-279, Cbz-(1-Me-Trp)-Oa-Asp-Phe(3-Br)-NH2] (Cbz-[Trp(1-Me)][Aoc(2)]D[Phe(3-Br)]-NH2)
% Act-Ave @ 1 nM: −0.19%
% Act-Ave @ 50 nM: 90.99%

CSCC[C@H](NC(C)=O)C(=O)N[C@@H](CC(=O)O)C(=O)N[C@@H](Cc1ccccc1)C(N)=O [HT-280, Ac-Met-Asp-Phe-NH2] (Ac-Met-Asp-Phe-NH2)
% Act-Ave @ 1 nM: −0.33%
% Act-Ave @ 50 nM: −0.16%

CCCCCC[C@H](NC(C)=O)C(=O)N[C@@H](CC(=O)O)C(=O)N[C@@H](Cc1cccc(Br)c1)C(N)=O [HT-281, Ac-Oa-Asp-Phe(3-Br)-NH2] (Ac-[Aoc(2)]-Asp-[Phe(3-Br)]-NH2)
% Act-Ave @ 1 nM: −0.09%
% Act-Ave @ 50 nM: 0.03%

CSCC[C@H](NC(C)=O)C(=O)N[C@@H](CC(=O)O)C(=O)N[C@@H](Cc1cccc(Br)c1)C(N)=O [HT-282, Ac-Met-Asp-Phe(3-Br)-NH2] (Ac-Met-Asp-[Phe(3-Br)]-NH2)
% Act-Ave @ 1 nM: 0.13%
% Act-Ave @ 50 nM: 0.45%

CCCC[C@H](NC(C)=O)C(=O)N[C@@H](CC(=O)O)C(=O)N[C@@H](Cc1cccc(Br)c1)C(N)=O [HT-283, Ac-Nle-Asp-Phe(3-Br)-NH2] (Ac-[Nle]-Asp-[Phe(3-Br)]-NH2)
% Act-Ave @ 1 nM: −0.04%
% Act-Ave @ 50 nM: −0.03%

CC(=O)N[C@@H](CC(=O)O)C(=O)N[C@@H](Cc1ccccc1)C(N)=O [HT-284, Ac-Asp-Phe-NH2] (Ac-Asp-Phe-NH2)
% Act-Ave @ 1 nM: 0.01%
% Act-Ave @ 50 nM: 0.09%
